One compound from EPA's ToxValDB 9.5 (doi:10.2903/j.efsa.2009.201r) can be followed below.

One series relates to Tagia sp. To be noted: mortality.
The subject of another series is Anas platyrhynchos. To be noted: oral, mortality.
Another series relates to Canidae. To be noted: chronic; duration: 1 years; oral; Dog Other; body weight.
The next series relates to Daphnia magna. To be noted: chronic/long-term; duration: 21 days; growth.
The test system of the next series is Apis mellifera. To be noted: acute; duration: 48 hours; dermal; mortality.
Another series deals with Rattus norvegicus. To be noted: for NOAEL: chronic.

For `COc1nc(C)nc(NC(=O)NS(=O)(=O)c2ccccc2Cl)n1` [Chlorsulfuron], the LC50 in the series on Tagia sp. (acute, duration: 14 days) is over 750 mg/kg; in the series with Anas platyrhynchos (short-term, feed), over 634 mg/kg-day; with Oncorhynchus mykiss (acute, duration: 96 hours, mortality), over 122 µg/mL. The NOEC stood at 188 mg/kg in the series on Tagia sp. (chronic/long-term, duration: 56 days); 12 mg/L in the series on Daphnia magna; 32 mg/L in the series with Oncorhynchus mykiss (chronic/long-term, duration: 77 days, growth). The LD50 is over 5000 mg/kg-day in the series with Anas platyrhynchos (acute, unspecified); over 5000 mg/kg-day with Colinus virginianus (acute, oral, mortality); over 100 µg/piece in the series with Apis mellifera; over 5540 mg/kg-day in the series on Rattus norvegicus (acute, oral, mortality). The NOAEL worked out at 60.6 mg/kg-day in the series on Canidae; 75 mg/kg-day with Rattus norvegicus; 20 mg/kg-day in the series on Rattus norvegicus (duration: 2 years, histopathology: neoplastic). In addition, the NOEL in the series with Colinus virginianus (reproduction developmental) amounted to 28 mg/kg-day.

In general, NOAEL refers to the highest tested level that showed no adverse finding.
